What was measured:
[1] = Characterization of lipid nanoparticles encapsulating Fluc-mRNA; format: physicochemical; conditions: for Particle size: LNP (YK-009/DSPC/cholesterol/DMG-PEG2000) encapsulating Fluc-mRNA transcribed using the cap analog; for PDI: LNP encapsulating Fluc-mRNA transcribed using the cap analog; for EE: encapsulation efficiency of LNP encapsulating Fluc-mRNA transcribed using the cap analog
Protocol: Cationic lipid YK-009 (Beijing Youcare Kechuang Pharmaceutical Technology Co., Ltd.), DSPC (AVT (Shanghai) Pharmaceutical Technology Co., Ltd.), cholesterol (AVT (Shanghai) Pharmaceutical Technology Co., Ltd.), and DMG-PEG2000 were dissolved in ethanol at a molar ratio of 49:10:39.5:1.5, and the mRNA was diluted in 50 mM citrate buffer (pH=4). The ethanol lipid solution was mixed with the Fluc-mRNA aqueous solution prepared from different cap structures at a volume ratio of 1:3 using a microfluidic device at a flow rate of 10 mL/min to prepare LNPs at a weight ratio of total lipid to mRNA of approximately 15:1. The resulting liposomes were diluted to 10-fold volume with PBS, and then ultrafiltered with a 300 KDa ultrafiltration tube to remove ethanol. The volume was then fixed to a certain volume with PBS. Finally, the LNPs were filtered through a 0.2 μm sterile filter to obtain an LNP preparation encapsulating Fluc-mRNA using YK-009/DSPC/cholesterol/DMG-PEG2000 (at a molar ratio of 49:10:39.5:1.5).
The particle size and polydispersity index (PDI) were determined by dynamic light scattering using a Malvern laser particle size analyzer. 10 μL of the liposome solution was taken, diluted to 1 mL with RNase-free deionized water, and added to a sample pool. Each sample was measured in triplicate. The measurement conditions were: a scattering angle of 90° and a temperature of 25° C. The encapsulation efficiency of LNPs was determined using the Quant-iT RiboGreen RNA Quantification Kit (Thermo Fisher Scientific, UK) according to the manufacturer's instructions.

DCP2 enzyme = target: T1, DCP2 enzyme (Schizosaccharomyces pombe, UniProt O13828); test: Decapping enzyme stability test; format: biochemical; conditions: for Decapping rate (%) of DCP2 enzyme: 30 pmol RNA, 50 U mRNA decapping enzyme, 37° C., 45 minutes; for decapping rate lower than that of HN3002: difference to HN3002; for decapping rate lower than that of N-7413: difference to N-7413; for decapping rate lower than that of YK-CAP-001: difference to YK-CAP-001; for decapping rate lower than that of YK-CAP-002: difference to YK-CAP-002; for decapping rate lower than that of compound 14: difference to compound 14; for decapping rate lower than that of m6A: difference to m6A
T1 construct: purchased New England Biolabs
T1 sequence (O13828 1-243 limits assumed): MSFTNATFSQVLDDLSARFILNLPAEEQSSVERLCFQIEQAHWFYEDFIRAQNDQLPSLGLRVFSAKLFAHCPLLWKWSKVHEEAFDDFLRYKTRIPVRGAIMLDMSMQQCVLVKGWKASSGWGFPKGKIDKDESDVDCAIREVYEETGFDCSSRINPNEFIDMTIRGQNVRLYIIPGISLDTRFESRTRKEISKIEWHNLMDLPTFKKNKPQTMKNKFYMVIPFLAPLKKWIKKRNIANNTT
T1 sequence (Q9P805 1-127 partner): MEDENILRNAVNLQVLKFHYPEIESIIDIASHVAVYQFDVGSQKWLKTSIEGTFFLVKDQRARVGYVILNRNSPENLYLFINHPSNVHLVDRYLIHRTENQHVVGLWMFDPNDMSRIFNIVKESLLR
T1 sequence (Q10108 155-180 partner limits assumed): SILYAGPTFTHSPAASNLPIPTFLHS
Protocol: 30 pmol of RNAs purified by polyacrylamide gel electrophoresis (PAGE) was subjected to an enzymatic reaction with 50 U of mRNA decapping enzyme (New England Biolabs) and 1×MDE buffer at 37° C. for 45 minutes. The enzymatic reactants were subjected to PAGE and stained with SYBR Green II (Lonza), followed by observation of the post-electrophoresis gel image on a Typhoon FLA 7000 (GE Healthcare) instrument. The electrophoresis band intensity ratio of RNA capping to RNA decapping was counted using ImageQuant (GE Healthcare) software, and the decapping rate of the decapping enzyme was calculated (as shown in Table 6).

BALB/C mice = test: In vivo imaging of protein expressed by LNP-carrying Fluc-mRNA in mice; conditions: for Average radiation intensity: female BALB/C mice; for average radiation intensity, times that of N-7413: ratio to N-7413; for average radiation intensity, times that of YK-CAP-001: ratio to YK-CAP-001; for average radiation intensity, times that of YK-CAP-002: ratio to YK-CAP-002; for average radiation intensity, times that of compound 14: ratio to compound 14; for average radiation intensity, times that of m6A: ratio to m6A
Protocol: The LNP preparation containing […] of Fluc-mRNAs transcribed using the cap analogs YK-CAP-001 to 006 in the present disclosure and the cap analogs N-7413, compound 14, and m6A in the prior art was intramuscularly injected into female BALB/C mice aged 4 to 6 weeks and weighing 17 to 19 g. At specific time points after administration (6 hours, 12 hours, 24 hours, 48 hours, 96 hours, and 168 hours), the mice were intraperitoneally injected with fluorescence imaging substrate. The mice were then allowed to move freely for 5 minutes, followed by detection of the average radiation intensity (corresponding to the amount of protein expression) of the protein expressed by LNP-carrying mRNA in the mice using an IVIS Spectrum small-animal in vivo imaging system.

[2] = 6 h after intramuscular injection of LNP Fluc-mRNA
[3] = 12 h after intramuscular injection of LNP Fluc-mRNA
[4] = 24 h after intramuscular injection of LNP Fluc-mRNA
[5] = 48 h after intramuscular injection of LNP Fluc-mRNA
[6] = 96 h after intramuscular injection of LNP Fluc-mRNA
[7] = 168 h after intramuscular injection of LNP Fluc-mRNA

SMILES	Particle size [1] [nm]	PDI [1]	EE [1] [%]	Decapping rate (%) of DCP2 enzyme (DCP2 enzyme) [%]	decapping rate lower than that of HN3002 (DCP2 enzyme) [%]	decapping rate lower than that of N-7413 (DCP2 enzyme) [%]	decapping rate lower than that of YK-CAP-001 (DCP2 enzyme) [%]	decapping rate lower than that of YK-CAP-002 (DCP2 enzyme) [%]	decapping rate lower than that of compound 14 (DCP2 enzyme) [%]	decapping rate lower than that of m6A (DCP2 enzyme) [%]	Average radiation intensity (BALB/C mice; [2]) [p/s/cm^2/sr]	Average radiation intensity (BALB/C mice; [3]) [p/s/cm^2/sr]	Average radiation intensity (BALB/C mice; [4]) [p/s/cm^2/sr]	Average radiation intensity (BALB/C mice; [5]) [p/s/cm^2/sr]	Average radiation intensity (BALB/C mice; [6]) [p/s/cm^2/sr]	Average radiation intensity (BALB/C mice; [7]) [p/s/cm^2/sr]	average radiation intensity, times that of N-7413 (BALB/C mice; at 6 hours) [times]	average radiation intensity, times that of YK-CAP-001 (BALB/C mice; at 6 hours) [times]	average radiation intensity, times that of YK-CAP-002 (BALB/C mice; at 6 hours) [times]	average radiation intensity, times that of compound 14 (BALB/C mice; at 6 hours) [times]	also measured
COC1C(OP(=O)([O-])OC[C@H]2O[C@@H](n3cnc4c(=O)[nH]c(N)nc43)C(O)C2O)[C@@H](COP(=O)(O)OP(=O)(O)OP(=O)(O)OC[C@]23O[C@@H]([n+]4cn(C)c5c(=O)[nH]c(N)nc54)C(O[C@H]2CC(=O)N(C)C)C3O)O[C@H]1n1cnc2c(N)ncnc21 (some centres unmarked) [YK-CAP-003]	82.83	0.032	95.6	11.8	11.4	36.8	14.5	12.8	17.0	15.7	3212750	2454750	1053625	700200	57893	19016	1.2	1.9	2.2	1.2	average radiation intensity, times that of m6A (BALB/C mice; at 6 hours): 1.8 times; average radiation intensity, times that of N-7413 (BALB/C mice; at 96 hours): 0.8 times; average radiation intensity, times that of YK-CAP-001 (BALB/C mice; at 96 hours): 1.3 times; average radiation intensity, times that of YK-CAP-002 (BALB/C mice; at 96 hours): 2.8 times; average radiation intensity, times that of compound 14 (BALB/C mice; at 96 hours): 1.0 times; average radiation intensity, times that of m6A (BALB/C mice; at 96 hours): 1.7 times
COC1C(OP(=O)([O-])OC[C@H]2O[C@@H](n3cnc4c(=O)[nH]c(N)nc43)C(O)C2O)[C@@H](COP(=O)(O)OP(=O)(O)OP(=O)(O)OC[C@]23O[C@@H]([n+]4cn(C)c5c(=O)[nH]c(N)nc54)C(O[C@H]2CC(F)F)C3O)O[C@H]1n1cnc2c(N)ncnc21 (some centres unmarked) [YK-CAP-004]	89.39	0.065	93.7	10.3	12.9	38.3	16.0	14.3	18.5	17.2	3856100	2836750	1159325	903025	114933	19785	1.4	2.2	2.6	1.5	average radiation intensity, times that of m6A (BALB/C mice; at 6 hours): 2.1 times; average radiation intensity, times that of N-7413 (BALB/C mice; at 96 hours): 1.7 times; average radiation intensity, times that of YK-CAP-001 (BALB/C mice; at 96 hours): 2.6 times; average radiation intensity, times that of YK-CAP-002 (BALB/C mice; at 96 hours): 5.5 times; average radiation intensity, times that of compound 14 (BALB/C mice; at 96 hours): 2.0 times; average radiation intensity, times that of m6A (BALB/C mice; at 96 hours): 3.4 times
COC1C(OP(=O)([O-])OC[C@H]2O[C@@H](n3cnc4c(=O)[nH]c(N)nc43)C(O)C2O)[C@@H](COP(=O)(O)OP(=O)(O)OP(=O)(O)OC[C@]23O[C@@H]([n+]4cn(C)c5c(=O)[nH]c(N)nc54)C(O[C@H]2CCS(C)(=O)=O)C3O)O[C@H]1n1cnc2c(N)ncnc21 (some centres unmarked) [YK-CAP-005]	87.01	0.064	94.5	12.8	10.4	35.8	13.5	11.8	16.0	14.7	3171000	2497200	998650	834250	110595	17807	1.1	1.8	2.2	1.2	average radiation intensity, times that of m6A (BALB/C mice; at 6 hours): 1.8 times; average radiation intensity, times that of N-7413 (BALB/C mice; at 96 hours): 1.6 times; average radiation intensity, times that of YK-CAP-001 (BALB/C mice; at 96 hours): 2.5 times; average radiation intensity, times that of YK-CAP-002 (BALB/C mice; at 96 hours): 5.3 times; average radiation intensity, times that of compound 14 (BALB/C mice; at 96 hours): 1.9 times; average radiation intensity, times that of m6A (BALB/C mice; at 96 hours): 3.3 times
COC1C(OP(=O)([O-])OC[C@H]2O[C@@H](n3cnc4c(=O)[nH]c(N)nc43)C(O)C2O)[C@@H](COP(=O)(O)OP(=O)(O)OP(=O)(O)OC[C@]23O[C@@H]([n+]4cn(C)c5c(=O)[nH]c(N)nc54)C(O[C@H]2CCS(=O)(=O)N(C)C)C3O)O[C@H]1n1cnc2c(N)ncnc21 (some centres unmarked) [YK-CAP-006]	96.64	0.029	96.3	11.2	12.0	37.4	15.1	13.4	17.6	16.3	3303900	2067750	976550	798075	75840	15660	1.2	1.9	2.3	1.3	average radiation intensity, times that of m6A (BALB/C mice; at 6 hours): 1.8 times; average radiation intensity, times that of N-7413 (BALB/C mice; at 96 hours): 1.1 times; average radiation intensity, times that of YK-CAP-001 (BALB/C mice; at 96 hours): 1.7 times; average radiation intensity, times that of YK-CAP-002 (BALB/C mice; at 96 hours): 3.6 times; average radiation intensity, times that of compound 14 (BALB/C mice; at 96 hours): 1.3 times; average radiation intensity, times that of m6A (BALB/C mice; at 96 hours): 2.3 times

Source: US12551500B2, “C6′-substituted locked nucleic acid-modified cap analog and use thereof” (Hangzhou Tianlong Pharmaceutical Co., Ltd., priority 2024, dated 2026)
